The test system of one data set is RAJI cells. Description: GLuc cytotoxicity assay, RAJI-GLuc cells. The format is cell-based, human. The protocol: (D) Assay for Cytotoxic Activity in vitro and in vivo: The uninfected T cells or those expressing a control vector or SIR are cocultured with the target cell lines expressing a non-secretory form of a luciferase (such as GLuc, NLuc, Turboluc 16 etc.) for 4-96 hours and induction of cell lysis examined by measuring the luciferase activity as described in PCT/US17/52344. Alternate methods for measurement of cytotoxic activity (e.g., ^51Cr release assay or LDH release assay) can be used as well. The activity of T cells expressing a SIR can be also assayed in vivo using appropriate xenograft models in immunodeficient mice.
Cell death assay. To measure cell death, a novel assay based on ectopic cytosolic expression of Gluc or NLuc was utilized as described in PCT/US17/52344 “A Non-Radioactive Cytotoxicity Assay”. The method involves expression of a reporter in a target cells in a manner so that it is preferentially retained within the healthy cells but is either released from dead and dying cells or whose activity can be preferentially measured in dead and dying cells. The preferred reporter for this assay are 1) non-secreted forms of luciferases from the copepods, such as Gaussia princeps, Pleuromamma abdominalis, Metridia pacifica, Metridia curticauda, Metridia asymmetrica, Metridia okhotensis, Metridia longa, Lucicutia ovaliformis, Heterorhabdus tanneri, and Pleuromamma scutullata 2) engineered luciferase reporters from deep sea shrimp, such as NanoLuc. The sequence of several such reporter vectors is provided in SEQ ID NO: 881 to SEQ ID NO: 887. The above vectors were used to generate retrovirus and lentiviruses which in turn were used to generate polyclonal population of several target cell lines stably expressing GLuc, NLuc, TurboLuc or MLuc7 following selection with appropriate antibiotics. Unless indicated otherwise, the target cells stably expressing the different luciferases (GLuc, Nluc, MLuc7 or TurboLuc16) were plated in triplicate in a 384 well plate in the media used for growing the target cells. Target cells which grow in suspension were generally plated at a concentration of 2-3×10^4 per well, while target cells which grow as adherent monolayers were plated at a concentration of 1-2×10^4 per well. Unless indicated otherwise, the target cells were cocultured with the genetically modified T cells (i.e. those expressing SIR or CAR) at an Effector:Target (E:T) ratio varying from 1:1 to 10:1 for 4 hours to 96 hours. In the case target cells grow as adherent cells (e.g., HeLa cells), they were allowed to attach to the bottom of the wells overnight before the T cells were added. T cells mediated induction of lysis of target cells was assayed by increase of luciferase activity as measured by BioTek synergy plate reader by directly injecting 0.5×CTZ assay buffer containing native coeloentrazine (Nanaolight).
CTZ assay. A 100× stock solution of native coelenterazine (CTZ; Nanolight, cat #303) was made by dissolving 1 mg of lyophilized CT powder in 1.1 ml of 100% Methanol supplemented with 30 μl of 6N HCl to avoid oxidation of CTZ with time. To make CTZ assay buffer, the 100× stock solution of CTZ was diluted to 0.5× concentration in PBS. Unless indicated otherwise, a total volume of 15 μl of the CTZ assay buffer (as prepared above) was added to each well of a 384-well white plate (Greiner, 384 well white plate cat #781075) containing cells expressing the non-secretory form of the luciferase in approximately 50-60 μl volume of medium and plates were read for luminescence in endpoint mode using BioTek synergyH4 plate reader. For 96 well plates, cells were plated in 200 μl of media and approximately 50 μl of 0.5×CTZ assay buffer was added. Unless indicated otherwise, the 0.5×CTZ assay buffer was used for assaying the activity of GLuc, TurboLuc16, and MLuc7. The CTZ assay buffer (diluted to 0.125× concentration) was also used for measurement of NLuc activity in some experiments (see below).

Data set [1] deals with target antigen-expressing cell line. Description: Jurkat NFAT-GFP assay, coculture with target cell lines expressing the respective target antigen (summary Table 10A). The format is cell-based, human. Details: key: The signs +/−, +, 2+ etc. after the name of the cell lines indicate the relative degree of positivity on the Jurkat-NFAT-GFP assay as measured by the % GFP positive cells; +: relative degree of positivity on the Jurkat-NFAT-GFP assay as measured by the % GFP positive cells; 2+: relative degree of positivity on the Jurkat-NFAT-GFP assay as measured by the % GFP positive cells. As to conditions: relative % GFP positive cells; for NFAT-GFP ASSAY Positive Cell lines: RAJI: SIR-expressing Jurkat-NFAT-GFP cells cocultured with RAJI; for NFAT-GFP ASSAY Positive Cell lines: NALM6: SIR-expressing Jurkat-NFAT-GFP cells cocultured with NALM6. The protocol:
(B) Induction of NFAT promoter driven GFP expression. The control vector- and SIR-expressing Jurkat-NFAT-GFP cocultured for 4-24 hours with the target antigen-expressing cell line (described above) and their ability to bind to the target antigen is assayed by measuring induction of GFP expression using Flow Cytometry. Cellular supernatant is collected and assayed for the induction of cytokines (e.g., IL2).
Jurkat NFAT-GFP Assay For Synthetic Immune Receptors. The Jurkat-NFAT-GFP cells are engineered in such a way that the IL-2 promoter, which carries NFAT binding sites, is cloned upstream of the GFP gene. These cells have been used to study signaling via TCR and CAR. The different SIRs were stably expressed in Jurkat NFAT-GFP cells by lentiviral mediated gene transfer, followed by selection with puromycin. The SIR-expressing Jurkat-NFAT-GFP cells were cocultured with the target cells at E:T ratio of approximately 1:2 for approximately 4 hours to 18 hours. When the interaction between SIRs and their target antigen results in activation of the NFAT pathway, GFP expression is induced.
Induction of GFP expression by coculturing of Jurkat-NFAT-GFP cells expressing different SIR constructs and the different target cells was studied essentially as described previously (Wu, Roybal, Puchner, Onuffer, & Lim, 2015). GFP expression was monitored by FACS analysis. A few representative examples of this assay are shown in the FIG. 13A-B. In panel A, control Jurkat-NFAT-GFP cells or those expressing SIRs targeting CD19 (clone ID 051716-I08), MPL (Clone ID: 040716-A07) and BCMA (Clone ID: 011116-A07) were incubated with RAJI (top), HEL (middle) or U266 (bottom) cells, respectively. […] In panel B, Jurkat cells expressing SIR targeting CDH6 (Clone ID: 051716-J05), CD276 (Clone ID: 050516-Q06) and Her2/neu (Clone ID: 050516-I03) were incubated with SKOV3 (top) and […] (middle and bottom) cells, respectively. […] The Jurkat-NFAT-GFP cells were engineered to express different SIRs targeting other antigens and the experiment repeated upon coculture with the target cells expressing their respective target antigen. The Jurkat-NFAT-GFP (parental) cells were used as control. The names of different SIRs, their SEQ ID NOs, component antigen binding domains and TCR chains can be determined by reference to Tables 7A-7H. A SIR is considered positive in the assay in case the SIR expressing Jurkat-NFAT-GFP cells show greater % GFP positive cells when cultured with the target cell line as compared to parental Jurkat-NFAT-GFP cells. […] The signs +/−, +, 2+ etc. after the name of the cell lines indicate the relative degree of positivity on the Jurkat-NFAT-GFP assay as measured by the % GFP positive cells after culture of the SIR expressing Jurkat-NFAT-GFP cells with that cell line. […] In addition, great diversity of response against the same target cell line is observed with Jurkat cells expressing SIRs containing different antigen binding domains targeting the same antigen (e.g., SIRs having antigen binding domains derived form different CD19 antibodies) even when the SIRs share the same TCR chains and linkers. Finally, Jurkat cells expressing SIRs targeting different antigens (e.g. CD19 vs CD20) show a diversitiy of response when exposed to the same target cell line. Thus, a diverse immune response can be generated against a single target cell by combining SIRs with different TCR chains, linkers, antigen binding domains and target specificity. Table 10A also summarizes the results of GLuc based T cell cytotoxicity assay observed with different SIRs when exposed to their target cell lines. […]

Entries after “also recorded” stand apart in the source; their conditions may differ.

Regarding `C[C@@H]1CC[C@@]2(OC1)O[C@H]1[C@@H](O)[C@H]3[C@@H]4CC[C@H]5C[C@@H](O[C@@H]6O[C@H](CO)[C@H](O[C@@H]7O[C@H](CO)[C@@H](O)[C@H](O[C@@H]8OC[C@@H](O)[C@H](O)[C@H]8O)[C@H]7O[C@@H]7O[C@H](CO)[C@H](O)[C@H](O[C@@H]8O[C@H](CO)[C@@H](O)[C@H](O)[C@H]8O)[C@H]7O)[C@H](O)[C@H]6O)[C@H](O)C[C@]5(C)[C@H]4CC[C@]3(C)[C@H]1[C@@H]2C` [digitonin, Digitonin, reference compound], in the data set with RAJI cells (E:T 10:1, 4 hours), the “mean Gluc values” is listed as 3869.
In the case of “CD8SP-CD19Bu12-vL-Gly-Ser-Linker-CD19Bu12-vH-V5-[hTCRb-WT]-F-P2A-PAC [SEQ ID NO:1022]”, the “NFAT-GFP ASSAY Positive Cell lines: RAJI” value in data set [1] was “RAJI (+)”. Further, in the data set on RAJI cells (E:T 10:1, 4 hours), the “lysis of target cells by increase of GLuc activity (in words)” value is “failed to induce lysis of RAJI cells”.
Consider “CD8SP-CD20-2F2-vL-[canine-TCRb-opt]-F-P2A-CD20-2F2-vH-[canine-TCRa-opt]-F-F2A-PAC [SEQ ID NO:1113]”, for which the “NFAT-GFP ASSAY Positive Cell lines: RAJI” value in data set [1] is “RAJI (+/−)”. In addition, in the data set on RAJI cells (E:T 10:1, 4 hours), the “lysis of target cells by increase of GLuc activity (in words)” value was “effective induction of target cell lysis”.
For “CD8SP-FMC63-scFv-V5-[TCRb-S57C-opt1]-F-P2A-SP-FMC63-scFv-MYC-[TCRa-T48C-opt1]-T2A-Pac [SEQ ID NO:910]”, the “NFAT-GFP ASSAY Positive Cell lines: RAJI” value in data set [1] is recorded as “RAJI (+/−)”.
Consider “CD8SP-FMC63-vL-G4Sx2-[hTCRa-S61R-opt]-F-F2A-FMC63-vH-G4Sx2-[hTCRb-R79G-opt]-F-P2A-PAC [SEQ ID NO:955]”, for which, in data set [1], the “NFAT-GFP ASSAY Positive Cell lines: RAJI” value is given as “RAJI (+/−)”.
As to “CD8SP-FMC63-vL-Gly-Ser-Linker-FMC63-vH-Myc-[preTCRa-Del48]-F-F2A-PAC [SEQ ID NO:914]”, in data set [1], the “NFAT-GFP ASSAY Positive Cell lines: RAJI” value is listed as “RAJI (+)”.
As to “CD8SP-FMC63-vL-Gly-Ser-Linker-FMC63-vH-V5-[hTCRb-S57C-opt]-F-P2A-PAC [SEQ ID NO:912]”, in data set [1], the “NFAT-GFP ASSAY Positive Cell lines: RAJI” value is “RAJI (+/−)”. In addition, the “lysis of target cells by increase of GLuc activity (in words)” value with RAJI cells (E:T 10:1, 4 hours) was “failed to induce lysis of RAJI cells”.
In the case of “CD8SP-FMC63-vL-Gly-Ser-Linker-FMC63-vH-V5-[hTCRb-S57C-opt]-F-P2A-SP-Myc-[hTCRa-T48C-opt]-F-F2A-PAC [SEQ ID NO:991]”, in data set [1], the “NFAT-GFP ASSAY Positive Cell lines: NALM6” value is “+” and the “NFAT-GFP ASSAY Positive Cell lines: RAJI” value was “+/−”.
For the molecule “CD8SP-FMC63-vL-Gly-Ser-Linker-FMC63-vH-V5-[hTCRb-WT]-F-P2A-PAC [SEQ ID NO:911]”, the “NFAT-GFP ASSAY Positive Cell lines: RAJI” value in data set [1] is “RAJI (+)”.
The same measure, in the same setting: under “CD8SP-FMC63-vL-Myc2-[hTCRb-R79G-opt]-F-P2A-SP-FMC63-vH-Myc4-[hTCRa-S61R-opt]-F-F2A-PAC [SEQ ID NO:937]” stands “RAJI (+/−)”.
Take “CD8SP-FMC63-vL-Myc-[hTCRa-T48C-opt1]-F-F2A-FMC63-VH-V5-[hTCRb-C57C-opt1]-F-P2A-PAC [SEQ ID NO:902]”: the “lysis of target cells by increase of GLuc activity (in words)” value in the data set on RAJI cells (E:T 10:1, 4 hours) is “can induce effective lysis of the target cells”.
For “CD8SP-FMC63-vL-Streptag-[hTCRb-R79G]-F-P2A-SP-FMC63-vH-Myc4-[hTCRa-S61R]-F-F2A-PAC [SEQ ID NO:938]”, the “NFAT-GFP ASSAY Positive Cell lines: RAJI” value in data set [1] was “RAJI (+/−)”.
On to “CD8SP-FMC63-vL-V5-[hTCRb-S57C-opt]-F-P2A-SP-FMC63-vH-Myc-[hTCRa-T48C-opt]-F-F2A-PAC [SEQ ID NO:951]”, for which the “lysis of target cells by increase of GLuc activity (in words)” value with RAJI cells (E:T 10:1, 4 hours) is reported as “induced effective target cell lysis; also recorded: Modest cytotoxicity”.
For the molecule “CD8SP-FMC63-vL-V5-[hTCRb-WT]-F-P2A-SP-FMC63-vH-Myc-[hTCRa-WT]-F-F2A-PAC [SEQ ID NO:922]”, the “NFAT-GFP ASSAY Positive Cell lines: RAJI” value in data set [1] was “RAJI (2+)”. The “lysis of target cells by increase of GLuc activity (in words)” value in the data set with RAJI cells (E:T 1:1, 96 hours) was “fails to cause significant target cell lysis”; in the data set on RAJI cells (E:T 10:1, 4 hours), “fails to cause significant target cell lysis”.
With “CD8SP-FMC63-vL-V5-[mTCRb-opt]-F-P2A-SP-FMC63-vH-Myc-[mTCRa-opt]-F-F2A-PAC [SEQ ID NO:953]”, the “lysis of target cells by increase of GLuc activity (in words)” value is “increase in GLuc activity” in the data set on RAJI cells (E:T 1:1, 96 hours) and “increase in GLuc activity” with RAJI cells (E:T 10:1, 4 hours).
“IgHSP-FMC63-vH-[hTCRb-C57C-opt]-F-P2A-CD8SP-FMC63-VL-MYC-[hTCRa-T48C-opt]-F-F2A-Pac [SEQ ID NO:901]”: in data set [1], the “NFAT-GFP ASSAY Positive Cell lines: NALM6” value was “RAJI(2+), NALM6(2+)” and the “NFAT-GFP ASSAY Positive Cell lines: RAJI” value is listed as “RAJI(2+), NALM6(2+)”. The “lysis of target cells by increase of GLuc activity (in words)” value in the data set with RAJI cells (E:T 10:1, 4 hours) was “can also induce effective lysis of the target cells”.

The record behind these values is patent US12269859B2, “Synthetic immune receptors and methods of use thereof” (Angeles Therapeutics, Inc., priority 2016, dated 2025).
